We go through six molecules from article PMC9415951 (Viruses, 2022).

The target in series [1] is recombinant human factor Xa (Homo sapiens, UniProt P00742). Kind of series: Factor Xa inhibition assay (chromogenic substrate S-2765). In kind it is biochemical.
The next series deals with bovine thrombin (Bos taurus, UniProt P00735). Briefly: Thrombin inhibition assay (chromogenic substrate S-2238). Type of series: biochemical.
Series [2] is described as follows: Cytotoxicity assay (XTT) on VERO cells. In kind it is cell-based, African green monkey. The following applies: African green monkey.
The test system of the next series is VERO cells. Briefly: Cytotoxicity assay (XTT) on VERO cells. The following applies: 72 h, 100 µM. Type of series: cell-based, African green monkey.
Series [3] relates to SARS-CoV-2. Briefly: microbe, parasite or virus in culture. Type of series: cell-based. The following applies: for protective effect against SARS-CoV-2 infectivity (in words): preincubation 2 h, crystal violet 72 h after infection; for inhibition at 100 µM: Severe acute respiratory syndrome coronavirus 2, Vero.
The subject of series [4] is SARS-CoV-2. In kind it is cell-based. The following applies: 100 µM, virus coincubated with compound before infecting VERO cells.
A short description of series [5]: Stability in phosphate buffer solution pH 7.4 (RP-HPLC). Type of series: physicochemical. The following applies: for residual, % of the starting concentration: pH 7.4 buffer.
The nature of series [6]: Stability in pooled human serum (RP-HPLC). In kind it is in vitro ADME. The following applies: for residual, % of the starting concentration: human serum.
[7] abbreviates: Cheng-Prousoff from IC50, mean of three measurements, read-out: Enzyme Inhibition, Ki, Factor Xa.
The mark [8] stands for this setting: Cheng-Prousoff from IC50, mean of three measurements, read-out: Enzyme Inhibition, Ki, Thrombin.
The mark [9] stands for this setting: VERO cells, confluent monolayers (mock-infected), 72 h, XTT, read-out: VERO Cells Toxicity, CC50.

Entries after “also recorded” stand apart in the source; their conditions may differ. Where a name gives a salt, the structure may show the parent alone. Read-outs that look alike come from different tables or passages of the source.

recombinant human factor Xa, sequence (P00742 235-488 limits assumed): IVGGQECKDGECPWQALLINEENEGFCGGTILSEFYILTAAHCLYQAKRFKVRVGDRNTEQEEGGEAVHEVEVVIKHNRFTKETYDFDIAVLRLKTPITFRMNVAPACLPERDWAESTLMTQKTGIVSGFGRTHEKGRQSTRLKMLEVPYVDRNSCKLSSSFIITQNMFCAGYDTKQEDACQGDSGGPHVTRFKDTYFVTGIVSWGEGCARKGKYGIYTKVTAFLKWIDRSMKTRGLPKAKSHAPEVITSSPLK
recombinant human factor Xa, sequence (P00742 41-179 partner limits assumed): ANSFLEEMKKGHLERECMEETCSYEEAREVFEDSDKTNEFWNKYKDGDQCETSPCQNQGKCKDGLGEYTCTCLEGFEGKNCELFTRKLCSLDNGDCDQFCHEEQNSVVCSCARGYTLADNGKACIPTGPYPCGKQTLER

Regarding `N=C(N)N1CCC(C(=O)Nc2ccccc2OCc2cc(-c3ccc(Cl)s3)on2)CC1` [Compound 1], the Ki in series [1] (setting [7]) turned out to be 2 nM; on bovine thrombin (setting [8]), 6820 nM. In addition, in series [2], the 50% cytotoxic concentration (CC50) at 72 h is over 200000 nM. Besides, the “VERO Cells Toxicity, Cytotoxicity at 100 µM (% of nonviable cells)” value (from here on “VERO Cells Toxicity … (% of nonviable cells)”) with VERO cells (African green monkey) was 20.3 ± 0.9%. The “protective effect against SARS-CoV-2 infectivity (in words)” value (shortened to “protective effect”) in the series with SARS-CoV-2 [3] (100 µM) is on record as “weak (nonsignificant) protective effect”. Further, the “effect on SARS-CoV-2 infectivity (in words)” value with SARS-CoV-2 [4] is recorded as “did decrease viral infectivity”.

For `CC(C)N1CCC(C(=O)Nc2ccccc2OCc2cc(-c3ccc(Cl)s3)on2)CC1` [Compound 2], in series [1] (setting [7]), the Ki amounted to 0.3 nM. Moreover, the 50% cytotoxic concentration (CC50) at 72 h in series [2] is over 200000 nM. Moreover, the “VERO Cells Toxicity … (% of nonviable cells)” value in the series on VERO cells (African green monkey) is 7.45 ± 0.24%. The “protective effect” value in the series on SARS-CoV-2 [3] (100 µM) was “did not show any ability to reduce the virus infectivity”.

Consider `N=C(N)N1CCC(C(=O)Nc2cccc(OCc3cc(-c4ccc(Cl)s4)on3)c2)CC1` [Compound 3], for which the Ki worked out at 15 nM in series [1] (setting [7]); 20 ± 7 nM in series [1] (Ki, factor Xa, time-dependent inhibition, incubation time 0 min); 17 ± 8 nM in series [1] (Ki, factor Xa, time-dependent inhibition, incubation time 15 min). For the same molecule, the “time dependence of inhibition constant” value on bovine thrombin (preincubation 0, 15, 30 min) is “did not show any significant time-dependent change in inhibition constant”. The CC50 at 72 h in series [2] (72 h, XTT, read-out: VERO Cells Toxicity, CC50) stood at 155000 ± 16000 nM. Further, the “hydrolytic degradation after 24 h” value in series [5] (PBS pH 7.4, 24 h) is “less than 10%”; in series [6] (pooled blood human serum, 24 h), “less than 10%”. Also, the “residual, % of the starting concentration” value (from here on “residual, %”) is recorded as 100% in series [5] (0 h); 98.8±0.5% in series [5] (1 h); 98.1±1.5% in series [5] (4 h); 97.5±0.5% in series [5] (12 h); 97.9±1.0% in series [5] (24 h); 100% in series [6] (0 h). For the same molecule, the “residual, %” value in series [6] (1 h) stood at 95.8±1.0%; in series [6] (4 h), 96.6±1.5%; in series [6] (12 h), 93.2±2.5%; in series [6] (24 h), 96.8±3.0%. Besides, the “protective effect” value in the series with SARS-CoV-2 [3] (100 µM) was “completely inhibited; also recorded: statistically significant protective effects; also recorded: totally block SARS-CoV-2 entry”. For the same molecule, the inhibition at 100 µM with SARS-CoV-2 [3] (read-out: inhibition of virus infectivity) came out at 100%. The “inhibitory effects on SARS-CoV-2 infection” value in the series on SARS-CoV-2 [3] (lower concentrations 3–50 µM, preincubation, VERO cells) is on record as “ca. 30%”. Moreover, the “effect on SARS-CoV-2 infectivity (in words)” value in the series on SARS-CoV-2 [4] is “did decrease viral infectivity; also recorded: best candidate against the viral infection”.

On to `[H]/N=C(/N)c1ccc(NCc2nc3cc(C(=O)N(CCC(=O)O)c4ccccn4)ccc3n2C)cc1` [Dabigatran, dabigatran], for which the “inhibition mechanism, fXa” value in series [1] (time-dependent inhibition) is recorded as “reversible inhibitors”. Further, the “inhibition mechanism, thrombin” value on bovine thrombin was “reversible inhibitors”. Also, the half-maximal cytotoxic concentration (CC50) at 72 h in series [2] (setting [9]) is over 200000 nM. The “VERO Cells Toxicity … (% of nonviable cells)” value in the series with VERO cells (XTT, mock-infected VERO cells) came out at 18.3 ± 0.8%. In addition, the “protective effect” value in the series with SARS-CoV-2 [3] (100 µM) was “did not show any effect; also recorded: did not show any ability to reduce the virus infectivity”.

For `N=C(N)c1ccc2cc(OC(=O)c3ccc(N=C(N)N)cc3)ccc2c1` [Nafamostat, Nafamostat mesylate], the Ki in series [1] (incubation time 0 min, read-out: Ki, factor Xa, time-dependent inhibition) came to 363 ± 6 nM; in series [1] (incubation time 15 min, read-out: Ki, factor Xa, time-dependent inhibition), 340 ± 10 nM; in series [1] (incubation time 30 min, read-out: Ki, factor Xa, time-dependent inhibition) it was 225 ± 9 nM; at bovine thrombin (setting [8]), 10 nM; at bovine thrombin (incubation time 0 min, read-out: Ki, thrombin, time-dependent inhibition), 77 nM; at bovine thrombin (incubation time 15 min, read-out: Ki, thrombin, time-dependent inhibition) it was 13 nM. At bovine thrombin (incubation time 30 min, read-out: Ki, thrombin, time-dependent inhibition), the Ki amounted to 5 nM. For the same molecule, the “inhibition mechanism, fXa” value in series [1] (time-dependent inhibition) was “covalent inhibitor”. For the same molecule, the “inhibition mechanism, thrombin” value at bovine thrombin (time-dependent inhibition) is on record as “covalent inhibitor”. In addition, the CC50 at 72 h in series [2] (setting [9]) is over 200000 nM. Moreover, the “VERO Cells Toxicity … (% of nonviable cells)” value in the series with VERO cells (XTT, mock-infected VERO cells) amounted to 16.0 ± 0.8%. Besides, the “residual, %” value was 100% in series [5] (0 h); 95.1±0.5% in series [5] (0.5 h); 87.6±1.2% in series [5] (1 h); 84.9±1.0% in series [5] (2 h); 81.6±1.8% in series [5] (4 h); 78.4±2.5% in series [5] (8 h). Also, the “residual, %” value in series [5] (12 h) was found to be 73.8±3.0%; in series [5] (24 h) it was 61.4±2.8%; in series [6] (0 h) it was 100%; in series [6] (0.5 h), 45.9±4.3%; in series [6] (1 h), 21.2±5.2%; in series [6] (2 h), 5.1±3.3%. Besides, the half-life at 100 µM is about 45 h in series [5] (phosphate buffer solution (PBS), PBS pH 7.4, 37 °C) and 0.267 h in series [6] (pooled human serum, 37 °C, read-out: half-life in human pooled blood serum). Also, the “protective effect” value in the series on SARS-CoV-2 [3] (100 µM) is listed as “did not achieve statistically significant activity”; in the series with SARS-CoV-2 [3] (100 µM, listed as NAF), “weak (nonsignificant) protective effect”. Further, the cellular monolayer preserved result in the series with SARS-CoV-2 [3] (100 µM, preincubation, crystal violet staining) was “around 60%”. Further, the “cells with SARS-CoV-2 detected” value in the series with SARS-CoV-2 [3] (100 µM, preincubation, immunofluorescence) is reported as ~ 25%. Further, the “activity against SARS-CoV-2 infection over scalar concentrations (in words)” value with SARS-CoV-2 [3] (3–100 µM, preincubation) is listed as “not to have statistically significant activity”. In the series on SARS-CoV-2 [3] (read-out: reduction of viral entry (inhibition)), the inhibition at 100 µM was about 20%. Besides, the “inhibition of SARS-CoV-2 infection” value in the series on SARS-CoV-2 [3] (whole range of test concentrations 3–100 µM, VERO cells) was 15–20%.

With `O=C(NC[C@H]1CN(c2ccc(N3CCOCC3=O)cc2)C(=O)O1)c1ccc(Cl)s1` [Rivaroxaban, rivaroxaban], in series [1] (time-dependent inhibition), the “inhibition mechanism, fXa” value is “reversible inhibitors”. The same molecule gave a Ki at bovine thrombin of 12000 nM. For the same molecule, at bovine thrombin (time-dependent inhibition), the “inhibition mechanism, thrombin” value is on record as “reversible inhibitors”. The CC50 at 72 h in series [2] (setting [9]) was over 200000 nM. Also, the “VERO Cells Toxicity … (% of nonviable cells)” value in the series with VERO cells (XTT, mock-infected VERO cells) worked out at 29.4 ± 0.8%. Also, in the series with SARS-CoV-2 [3] (100 µM), the “protective effect” value is reported as “did not show any effect; also recorded: did not show any ability to reduce the virus infectivity”.
